Columns and labels:
[1] = Percent of Dabigatran etexilate remaining after exposure to aqueous solutions; format: physicochemical; details: 15 minutes
[2] = Aqueous solubility of Dabigatran etexilate in presence of solubility enhancers; format: physicochemical
Text: However, based on data presented in Table I, TPGS (tocopherol polyethylene glycol succinate) would be expected to be a poor solubilizer by one skilled in the art. […] The present invention provides pharmaceutical compositions and method of administration of Dabigatran etexilate to overcome the clinical limitations posed by gastrointestinal delivery, specifically by increasing the solubility of Dabigatran etexilate, while maintaining it in its most bioavailable form to ascertain an effective transport through the oral mucous membranes so it effectively can exert its anticoagulant activity. We have observed that the use of pharmaceutical solubilizers such as d-alpha Tocopherol polyethylene glycol succinate (TPGS) and Polysorbate 80 improved the solubility up to 5-10 mg/mL. Without being bound to any specific mechanism, the enhanced solubility and dissolution of Dabigatran etexilate, when co-formulated with TPGS may likely be due to ability of TPGS to inhibit precipitation and maintain supersaturation of dabigatran free base in the formulation microenvironment during dissolution. Pharmaceutical co-solvents such as Polyethylene Glycol 400 (PEG 400) and Glycerol improved the solubility compared to water alone, but the solubility was still<0.1 mg/mL.

[3] = pH 4.5-7.4; cited from earlier work

- % of Initial (23° C.) ([1]; Water): 21.6%
- % of Initial (40° C.) ([1]; Water): 21.0%
- % of Initial (23° C.) ([1]; pH 2 acetate buffer (0.1M)): 0.2%
- % of Initial (40° C.) ([1]; pH 2 acetate buffer (0.1M)): 0.2%
- % of Initial (23° C.) ([1]; pH 3 acetate buffer (0.1M)): 22.4%
- % of Initial (40° C.) ([1]; pH 3 acetate buffer (0.1M)): 22.2%
- % of Initial (23° C.) ([1]; pH 4 phosphate buffer (0.1M)): 59.5%
- % of Initial (40° C.) ([1]; pH 4 phosphate buffer (0.1M)): 55.7%
- Solubility (mg/ml) 25° C. ([2]; 2% w/v Polysorbate 80 in 0.01M histidine buffer, pH 7.4, 25° C.): <0.1 mg/mL
- Solubility (mg/ml) 25° C. ([2]; 5% w/v Polysorbate 80 in 0.01M histidine buffer, pH 7.5, 25° C.): <0.1 mg/mL
- Solubility (mg/ml) 25° C. ([2]; 5% w/v TPGS in 0.01M histidine buffer, pH 7.6, 25° C.): 0.37 mg/mL
- Solubility (mg/ml) 25° C. ([2]; 10% w/v Glycerol in 0.01M histidine buffer, pH 7.6, 25° C.): <0.1 mg/mL
- Solubility (mg/ml) 25° C. ([2]; 10% w/v PEG 400 in 0.01M histidine buffer, pH 7.5, 25° C.): <0.1 mg/mL
- Solubility with pharmaceutical co-solvents ([2]; Polyethylene Glycol 400 (PEG 400) and Glycerol): < 0.1 mg/mL
- Solubility (mg/ml) 25° C. ([2]; Water, pH 6.5, 25° C.): <0.001 mg/mL
Substance: Dabigatran etexilate
- Solubility under physiological conditions relevant to oral absorption [3]: virtually insoluble

Source: patent publication US20190008843A1, “PHARMACEUTICAL COMPOSITIONS FOR ON DEMAND ANTICOAGULANT THERAPY” (Kenox Pharmaceuticals Inc, priority 2016, published 2019)
